Results taken from PMC12486301 (The Journal of pharmacology and experimental therapeutics, 2025).
Where two headings read alike, the source gives them in different places.

What was measured:
ENT1 = target: T1, ENT1 (Homo sapiens, UniProt Q99808); assay: Inhibition of [3H]uridine uptake into WT HeLa; format: cell-based; conditions: for inhibition at 20 µM: HeLa; for ENT1 % Inhibition (±SD): model-predicted compounds from MedChem Express Drug Repurposing Library
T1 sequence (Q99808 1-456): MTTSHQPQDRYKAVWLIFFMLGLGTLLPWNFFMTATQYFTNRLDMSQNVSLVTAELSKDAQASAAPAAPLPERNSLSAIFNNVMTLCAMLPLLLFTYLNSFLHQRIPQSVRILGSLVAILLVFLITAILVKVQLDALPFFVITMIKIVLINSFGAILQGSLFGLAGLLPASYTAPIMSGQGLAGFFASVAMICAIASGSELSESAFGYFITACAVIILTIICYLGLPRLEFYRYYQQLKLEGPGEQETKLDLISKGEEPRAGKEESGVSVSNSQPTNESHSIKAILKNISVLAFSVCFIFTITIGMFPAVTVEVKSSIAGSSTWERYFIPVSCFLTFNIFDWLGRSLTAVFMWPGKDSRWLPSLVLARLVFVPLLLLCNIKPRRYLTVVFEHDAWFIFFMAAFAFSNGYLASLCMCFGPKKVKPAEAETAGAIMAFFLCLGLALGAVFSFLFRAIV

ENT2 = target: T2, ENT2 (Homo sapiens, UniProt Q14542); assay: Inhibition of [3H]uridine uptake into HeLa FlpIn cells overexpressing hENT2; format: cell-based; conditions: for inhibition at 20 µM: HeLa
T2 sequence (Q14542 1-456): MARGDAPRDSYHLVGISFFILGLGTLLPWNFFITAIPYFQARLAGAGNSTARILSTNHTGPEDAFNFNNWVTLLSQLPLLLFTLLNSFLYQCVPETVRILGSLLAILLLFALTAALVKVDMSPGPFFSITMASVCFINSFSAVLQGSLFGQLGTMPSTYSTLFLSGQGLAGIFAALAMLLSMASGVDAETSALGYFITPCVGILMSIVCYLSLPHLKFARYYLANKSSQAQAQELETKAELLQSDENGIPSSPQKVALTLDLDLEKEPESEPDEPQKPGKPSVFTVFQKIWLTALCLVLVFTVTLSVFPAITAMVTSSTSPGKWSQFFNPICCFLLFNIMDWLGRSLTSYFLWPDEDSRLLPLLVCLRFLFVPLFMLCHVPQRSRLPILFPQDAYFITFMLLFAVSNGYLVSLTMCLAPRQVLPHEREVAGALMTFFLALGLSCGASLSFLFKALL

[1] = read-out: ENT1 % Inhibition (±SD)
[2] = read-out: ENT1 % Inhibition (20μM)
[3] = read-out: ENT2 % Inhibition (20μM)
[4] = read-out: ENT1 inhibition of uridine uptake (Spectrum screen, text)
[5] = read-out: ENT2 inhibition of transport activity (Spectrum screen, text)

Q: Which inhibition at 20 µM (ENT1; [1]) does the source give for `C=CC(=O)N1CCC(c2ccc(C(N)=O)c(-c3ccc(Oc4ccccc4)cc3)n2)CC1` [Orelabrutinib] here?
A: 87.5%

Q: With `CC[C@@H](C(=O)Nc1ccc(C(N)=O)c(F)c1)n1cc(OC)c(-c2cc(Cl)ccc2-n2cc(C(F)(F)F)nn2)cc1=O` [Asundexian] as the molecule, how does the “ENT1 % Inhibition (±SD)” value (ENT1; 20 μM) read?
A: 95.39 (0.23) %

Q: What does the source list for `CCc1oc2ccccc2c1C(=O)c1cc(Br)c(O)c(Br)c1` [benzbromarone]?
A: IC50 (ENT1): 29.8 ± 2.1 µM; inhibition at 20 µM (ENT1; [2]): 79.6%; IC50 (ENT2): 262 ± 108 µM; inhibition at 20 µM (ENT2; [3]): 25.4%

Q: With `CCCCC1(CCCC)CN(c2ccccc2)c2cc(SC)c(OCC(=O)N[C@@H](C(=O)N[C@@H](CC)C(=O)O)c3ccc(O)cc3)cc2S(=O)(=O)N1` [Odevixibat] as the molecule, how does the inhibition at 20 µM (ENT1; [1]) read?
A: 78.3%

Q: How did the inhibition at 20 µM (ENT1; [2]) turn out when `O=c1[nH]c2ccccc2n1CCCN1CCC(n2c(=O)[nH]c3cc(Cl)ccc32)CC1` [domperidone] was run?
A: 24.4%

Q: And the IC50 (ENT2)?
A: 0.16 ± 0.04 µM

Q: What about the inhibition at 20 µM (ENT2; [3]) of the same molecule?
A: 64.3%

Q: With `COc1cccc(-c2cc(F)c(Nc3ncccc3C(=O)O)c(F)c2)c1` [Farudodstat] as the molecule, how does the inhibition at 20 µM (ENT1; [1]) read?
A: 86.8%

Q: For `Oc1ccc(C2=Cc3ccc(O)cc3OC2)cc1` [Phenoxodiol], which inhibition at 20 µM (ENT1; [1]) is on record?
A: 69.3%

Q: How did the inhibition at 20 µM (ENT1; [1]) turn out when `COC(=O)C1=C(C)NC(C)=C(C(=O)OC(C)C)C1c1cccc2nonc12` (stereo not drawn) [Isradipine] was run?
A: 92.7%

Q: `COc1ccc(-c2cc(=O)c3c(OC)c(OC)c(OC)cc3o2)cc1OC` [sinensetin] was tested. Which IC50 (ENT1) did it give?
A: 1.25 ± 0.3 µM

Q: And the inhibition at 20 µM (ENT1; [2])?
A: 95.9%

Q: And the inhibition at 20 µM (ENT1; [4])?
A: ~80%

Q: And the IC50 (ENT2)?
A: 22.2 ± 2.2 µM

Q: What about the inhibition at 20 µM (ENT2; [3]) of the same molecule?
A: 82.5%

Q: And the inhibition at 20 µM (ENT2; [5])?
A: 35%

Q: For `CCCCc1nc(Cl)c(CO)n1Cc1ccc(-c2ccccc2-c2nn[nH]n2)cc1` [losartan], which IC50 (ENT2) is on record?
A: 172 ± 60.2 µM

Q: What about the inhibition at 20 µM (ENT2; [3]) of the same molecule?
A: 33%

Q: Which inhibition at 20 µM (ENT1; [1]) does the source give for `COc1cc(C[C@H]2C(=O)OC[C@@H]2Cc2ccc(OC)c(OC)c2)ccc1O` [Arctigenin] here?
A: 67.5%

Q: With `Cc1cccc(-c2nn3c(c2-c2ccnc4ccc(C(N)=O)cc24)CCC3)n1` [Galunisertib] as the molecule, how does the inhibition at 20 µM (ENT1; [1]) read?
A: 56.2%

Q: `COc1ccc(S(=O)(=O)Nc2cc(-c3c(O)ccc4ccccc34)c(O)c3ccccc23)cc1` [C188-9] was tested. Which “ENT1 % Inhibition (±SD)” value (ENT1; 20 μM) did it give?
A: 72.99 (5.06) %

Q: `COc1cc(O)cc(O)c1C(=O)c1ccccc1` [isocotoin] was tested. Which “ENT1 inhibition of uridine uptake (Spectrum screen, text)” value (ENT1; 20 μM, Spectrum Collection screen (Table S1)) did it give?
A: ~ 65%

Q: And the IC50 (ENT1; read-out: predicted IC50 for ENT1, predicted from inhibition at 20 μM)?
A: 12 µM

Q: How did the “ENT1 % Inhibition (±SD)” value (ENT1; 20 μM) turn out when `COc1cc(C(=O)c2c(C)oc3c(O)c(OC)ccc23)cc(OC)c1OC` [BNC105] was run?
A: 97.87 (1.06) %

Q: `COc1cc2c(cc1OC)-c1c/c(=N\c3c(C)cc(C)cc3C)n(CCNC(N)=O)c(=O)n1CC2` [Ensifentrine] was tested. Which inhibition at 20 µM (ENT1; [1]) did it give?
A: 98.2%

Q: What does the source list for `CC(=O)[C@H]1CC[C@H]2[C@@H]3C[C@H](C)C4=CC(=O)CC[C@]4(C)[C@H]3[C@@H](O)C[C@]12C` [medrysone]?
A: IC50 (ENT1): 4.44 ± 0.9 µM; inhibition at 20 µM (ENT1; [2]): 95.1%; IC50 (ENT2): 210 ± 89.2 µM; inhibition at 20 µM (ENT2; [3]): 56.3%

Q: How did the IC50 (ENT1) turn out when `O=C(O[C@@H]1Cc2c(O)cc(O)cc2O[C@@H]1c1ccc(O)c(O)c1)c1cc(O)c(O)c(O)c1` [Epicatechin gallate] was run?
A: 4 µM

Q: What about the inhibition at 20 µM (ENT1; [4]) of the same molecule?
A: ~85%

Q: Which inhibition at 20 µM (ENT1; [1]) does the source give for `COc1ccc(-c2c(Cl)ncn2-c2ccc(S(N)(=O)=O)cc2)cc1F` [Cimicoxib] here?
A: 57.3%

Q: For `C#CCOc1ccc(/C=C/C(=O)Nc2ccccc2C(=O)O)cc1OC` [FT011], which “ENT1 % Inhibition (±SD)” value (ENT1; 20 μM) is on record?
A: 54.94 (2.47) %

Q: For `COc1cc(-c2cnc3cc(OCCN4CCOCC4)ccn23)cc2c1C(=O)N(CC(F)(F)F)CC2` [GLPG3970], which inhibition at 20 µM (ENT1; [1]) is on record?
A: 68.1%

Q: With `CCOc1ccc2c(-c3cccc(F)c3)nn(CC(=O)N(C)c3ccc4nc(C)oc4c3)c(=O)c2c1` [CFTR corrector 2] as the molecule, how does the inhibition at 20 µM (ENT1; [1]) read?
A: 98%

Q: With `COc1ccc(CN=c2[nH]c(N3CCC[C@H]3CO)ncc2C(=O)NCc2ncccn2)cc1Cl` [Avanafil] as the molecule, how does the inhibition at 20 µM (ENT1; [1]) read?
A: 100%

Q: For `C=CC[C@@H]1/C=C(\C)C[C@H](C)C[C@H](OC)[C@H]2O[C@@](O)(C(=O)C(=O)N3CCCC[C@H]3C(=O)O[C@H](/C(C)=C/[C@@H]3CC[C@@H](O)[C@H](OC)C3)[C@H](C)[C@@H](O)CC1=O)[C@H](C)C[C@@H]2OC` [tacrolimus], which inhibition at 20 µM (ENT1; [4]) is on record?
A: ~80%

Q: And the inhibition at 20 µM (ENT2; [5])?
A: 35%

Q: Which inhibition at 20 µM (ENT1; [1]) does the source give for `CC(=O)O[C@]1(C(C)=O)CC[C@H]2[C@@H]3C=C(C)C4=CC(=O)CC[C@@H]4[C@H]3CC[C@@]21C` [Nomegestrol acetate] here?
A: 82.9%
